Structures can show the parent of a compound that is named as a salt.
System: ATGL-KO iPSCs
Assay: High throughput iPSC chemical screening, Oil Red O (ORO) lipid accumulation; on Z-score: test concentration or dose not given here
Assay type: cell-based, mouse
Conditions: for Z-score: normalized ORO level vs DMSO-treated cells, compound present during 7 days differentiation, 96-well, negative = decrease in lipid accumulation; for Rank in normalized ORO score from screen: glycolytic switch compounds

Row | Compound | Z-score | Rank in normalized ORO score from screen
1 | Cc1cc(NC(=O)C2=C(O)c3ccccc3S(=O)(=O)N2C)no1 [Isoxicam] | −0.7646 | 
2 | [H]/N=C(/N)N/C(=N/[H])NCCc1ccccc1 [Phenformin hydrochloride] | −0.2777 | 524
3 | C[C@@H]1C[C@H]2[C@@H]3CCC4=CC(=O)C=C[C@]4(C)[C@@]3(Cl)[C@@H](O)C[C@]2(C)[C@@]1(OC(=O)c1ccco1)C(=O)CCl [Mometasone furoate] | −0.7613 | 
4 | Clc1ccc(CCC(Cn2ccnc2)Sc2c(Cl)cccc2Cl)cc1 (stereo not drawn) [Butoconazole nitrate] | −0.4077 | 
5 | Nc1ccc(S(=O)(=O)Nc2ccccn2)cc1 [Sulfapyridine] | 0.5256 | 
6 | C#CCN(C)[C@H](C)Cc1ccccc1 [Selegiline hydrochloride] | 2.279 | 
7 | CCC(=O)[C@@]1(C)[C@H](C)C[C@H]2[C@@H]3CCC4=CC(=O)C=C[C@]4(C)[C@H]3[C@@H](O)C[C@@]21C [Rimexolone] | −0.4134 | 
8 | CN1[C@@H](C[C@@H](O)c2ccccc2)CCC[C@H]1C[C@H](O)c1ccccc1.Cl [Lobelanidine hydrochloride] | −0.6306 | 
9 | Pyrantel tartrate | −0.1933 | 
10 | CCn1cc(C(=O)O)c(=O)c2cc3c(cc21)OCO3 [Oxolinic acid] | −1.0488 | 
11 | NS(=O)(=O)c1cc(C(=O)O)cc(N2CCCC2)c1Oc1ccccc1 [Piretanide] | 0.2521 | 
12 | Cc1c(O)c(=O)n(-c2ccccc2)n1C [Antipyrine, 4-hydroxy] | 0.52 | 
13 | CC(C)(C)NC(=O)[C@@H]1C[C@@H]2CCCC[C@@H]2CN1C[C@@H](O)[C@H](Cc1ccccc1)NC(=O)[C@H](CC(N)=O)NC(=O)c1ccc2ccccc2n1 [Saquinavir mesylate] | 1.027 | 
14 | O=c1[nH]c(=O)n([C@H]2C[C@H](O)[C@@H](CO)O2)cc1I [Idoxuridine] | −1.0734 | 
15 | Cc1cc2nc3c(=O)[nH]c(=O)nc-3n(C[C@H](O)[C@H](O)[C@H](O)CO)c2cc1C [Riboflavine] | 0.1165 | 
16 | CCC(Cc1c(I)cc(I)c(N)c1I)C(=O)O (stereo not drawn) [Iopanoic acid] | −0.7767 | 
17 | Cc1cccc(Nc2ccncc2S(=O)(=O)NC(=O)NC(C)C)c1 [Torsemide] | 0.1541 | 
18 | C[N+]1(C)CCCC(OC(=O)C(O)(c2ccccc2)c2ccccc2)C1 (stereo not drawn) [Mepenzolate bromide] | −0.115 | 
19 | c1ccc2c(c1)OCC(C1=NCCN1)O2 (stereo not drawn) [Idazoxan hydrochloride] | −1.447 | 
20 | COc1c(O)cc2c(c1O)[C@@H]1O[C@H](CO)[C@@H](O)[C@H](O)[C@H]1OC2=O [Bergenin monohydrate] | −0.7293 | 
21 | CCC1(c2ccc(N)cc2)CCC(=O)NC1=O (stereo not drawn) [Glutethimide, para-amino] | 0.2858 | 
22 | C[C@@H]1CC[C@@]2(NC1)O[C@H]1C[C@H]3[C@@H]4CC=C5C[C@@H](O)CC[C@]5(C)[C@H]4CC[C@]3(C)[C@H]1[C@@H]2C [Solasodine] | −0.5386 | 
23 | Cc1cc(CC(=O)O)n(C)c1C(=O)c1ccc(Cl)cc1 [Zomepirac sodium salt] | 0.8794 | 
24 | CCn1cc(C(=O)O)c(=O)c2cc(F)c(N3CCNCC3)nc21 [Enoxacin] | −0.7386 | 
25 | Cc1cnc(C(=O)NCCc2ccc(S(=O)(=O)NC(=O)NC3CCCCC3)cc2)cn1 [Glipizide] | −0.2981 | 
26 | CS(=O)(=O)c1ccc([C@@H](O)[C@@H](CO)NC(=O)C(Cl)Cl)cc1 [Thiamphenicol] | 16.8903 | 

Row | Compound | Z-score | Rank in normalized ORO score from screen
27 | CC(C)(CO)[C@@H](O)C(=O)NCCC(=O)O [Pantothenic acid calcium salt monohydrate] | −1.5008 | 
28 | Cc1c(NC(C)C)c(=O)n(-c2ccccc2)n1C.Cl [Isopyrin hydrochloride] | 0.0325 | 
29 | CNC(=C[N+](=O)[O-])NCCSCc1csc(CN(C)C)n1 [Nizatidine] | −0.1369 | 
30 | C#C[C@]1(O)CC[C@H]2[C@@H]3CCC4=CCCC[C@@H]4[C@H]3CC[C@@]21C [Lynestrenol] | −1.3181 | 
31 | CCC(=O)O[C@]1(C(=O)CCl)[C@@H](C)C[C@H]2[C@@H]3CCC4=CC(=O)C=C[C@]4(C)[C@@]3(F)[C@@H](O)C[C@@]21C [Clobetasol propionate] | 2.1955 | 
32 | CCCCNc1cc(C(=O)O)cc(S(N)(=O)=O)c1Oc1ccccc1 [Bumetanide] | −1.3983 | 
33 | CCC(=O)O[C@@](Cc1ccccc1)(c1ccccc1)[C@@H](C)CN(C)C [Levopropoxyphene napsylate] | −1.0896 | 
34 | CC(C)/N=c1\cc2n(-c3ccc(Cl)cc3)c3ccccc3nc-2cc1Nc1ccc(Cl)cc1 [Clofazimine] | −0.5584 | 
35 | CC1=C(CC(=O)O)c2cc(F)ccc2/C1=C\c1ccc([S+](C)[O-])cc1 (stereo not drawn) [Sulindac] | 1.451 | 
36 | CCS(=O)(=O)CCn1c([N+](=O)[O-])cnc1C [Tinidazole] | −0.3977 | 
37 | CN(C)CC/C=C1/c2ccccc2Sc2ccc(Cl)cc21 [Chlorprothixene hydrochloride] | −0.9824 | 223
38 | CC(=O)Oc1ccc(C(c2ccc(OC(C)=O)cc2)c2ccccn2)cc1 [Bisacodyl] | 0.477 | 791
39 | Cc1ccc(C)c(OCCCC(C)(C)C(=O)O)c1 [Gemfibrozil] | −0.2634 | 
40 | c1cncc(C2=NCCC2)c1 [Myosmine] | 0.265 | 
41 | CCN[C@H]1CN(CCCOC)S(=O)(=O)c2sc(S(N)(=O)=O)cc21 [Brinzolamide] | −0.419 | 
42 | Fc1ccc(C(OCCN2CCN(CCCc3ccccc3)CC2)c2ccc(F)cc2)cc1 [GBR 12909 dihydrochloride] | −1.0102 | 208
43 | CC(O)(P(=O)(O)O)P(=O)(O)O [Etidronic acid, disodium salt] | −0.1368 | 
44 | Merbromin | 0.2933 | 743
45 | Cc1c(Nc2ncccc2C(=O)O)cccc1C(F)(F)F [Flunixin meglumine] | −1.0122 | 
46 | COc1ccc2c(c1)[C@]13CCCC[C@@H]1[C@H](C2)N(C)CC3 | −0.8776 | 
47 | Clc1ccc(COC(Cn2ccnc2)c2ccc(Cl)cc2Cl)cc1 (stereo not drawn) [Econazole nitrate] | −0.8488 | 
48 | COc1ccc2[nH]c3c(c2c1)CCN=C3C [Methoxy-6-harmalan] | 1.201 | 
49 | C[C@H](N)[C@H](O)c1cccc(O)c1 [Metaraminol bitartrate] | −0.9024 | 
50 | COC(=O)[C@H]1[C@H]2C[C@@H]3c4[nH]c5cc(OC)ccc5c4CCN3C[C@H]2C[C@@H](OC(=O)c2cc(OC)c(OC)c(OC)c2)[C@@H]1OC [Reserpine] | −0.083 | 
51 | Cc1cccc(CN2CCN(C(c3ccccc3)c3ccc(Cl)cc3)CC2)c1 (stereo not drawn) [Meclozine dihydrochloride] | 1.227 | 
52 | CC(CN1c2ccccc2Sc2ccccc21)N(C)C (stereo not drawn) [Promethazine hydrochloride] | −1.4251 | 

Row | Compound | Z-score | Rank in normalized ORO score from screen
53 | CCC1(c2ccccc2)NC(=O)N(C)C1=O (stereo not drawn) [Mephenytoin] | 0.8864 | 
54 | Helveticoside | −0.1112 | 
55 | CC(=O)N(O)CCCCCNC(=O)CCC(=O)N(O)CCCCCNC(=O)CCC(=O)N(O)CCCCCN [Deferoxamine mesylate] | 12.8786 | 
56 | NC12CC3CC(CC(C3)C1)C2.NC12CC3CC(CC(C3)C1)C2.O=C(O)/C=C/C(=O)O [Adamantamine fumarate] | 0.2085 | 
57 | CC1=C(C(=O)O)N2C(=O)[C@@H](NC(=O)[C@H](N)c3ccc(O)cc3)[C@H]2SC1 [Cefadroxil] | −0.5419 | 
58 | Ketanserin tartrate hydrate | 1.256 | 
59 | CN1CCOC(c2ccccc2)c2ccccc2C1 (stereo not drawn) [Nefopam hydrochloride] | −0.0308 | 
60 | CCCOc1ccc(C(=O)OCCN(CC)CC)cc1N [Proparacaine hydrochloride] | 0.9367 | 
61 | CCN(CC)CCNc1ccc(CO)c2sc3ccccc3c(=O)c12 [Hycanthone] | 20.1467 | 
62 | CC(=O)[N-]S(=O)(=O)c1ccc(N)cc1.O.[Na+] [Sulfacetamide sodic hydrate] | −0.3059 | 
63 | CN(C)CCOC(c1ccccc1)c1ccccc1 [Diphenhydramine hydrochloride] | 1.308 | 
64 | Cc1noc(NS(=O)(=O)c2ccc(N)cc2)c1C [Sulfisoxazole] | −0.0512 | 
65 | CCN(CC)CCOC(=O)C(c1ccccc1)C1CCCCC1 (stereo not drawn) [Drofenine hydrochloride] | −0.0455 | 
66 | NCCC(=O)NCCc1c[nH]cn1 [Carcinine] | 0.6838 | 
67 | NC(=O)c1cc[n+](CC2=C(C(=O)[O-])N3C(=O)[C@@H](NC(=O)Cc4cccs4)[C@H]3SC2)cc1 [Cefalonium] | −0.8363 | 
68 | CCCCC1(COC(=O)CCC(=O)O)C(=O)N(c2ccccc2)N(c2ccccc2)C1=O [Suxibuzone] | −1.3282 | 
69 | CO/N=C(\C(=O)N[C@@H]1C(=O)N2C(C(=O)O)=C(C[N+]3(C)CCCC3)CS[C@H]12)c1csc(N)n1 [Cefepime hydrochloride] | 1.172 | 
70 | Trimeprazine tartrate | −1.418 | 
71 | CC(C)OC(=O)C(C)(C)Oc1ccc(C(=O)c2ccc(Cl)cc2)cc1 [Fenofibrate] | −1.6051 | 
72 | COc1ccc([C@@H]2CC(=O)c3c(O)cc(O[C@@H]4O[C@H](CO[C@@H]5O[C@@H](C)[C@H](O)[C@@H](O)[C@H]5O)[C@@H](O)[C@H](O)[C@H]4O)cc3O2)cc1O [Hesperidin] | 2.254 | 
73 | CN1CCC(=C2c3ccccc3CC(=O)c3sccc32)CC1 [Ketotifen fumarate] | 0.5681 | 
74 | Tyloxapol | 0.9571 | 
75 | Clc1ccc(CSC(Cn2ccnc2)c2ccc(Cl)cc2Cl)cc1 (stereo not drawn) [Sulconazole nitrate] | −0.6576 | 372
76 | CC1(C)O[C@@H]2C[C@H]3[C@@H]4C[C@H](F)C5=CC(=O)CC[C@]5(C)[C@H]4[C@@H](O)C[C@]3(C)[C@]2(C(=O)CO)O1 [Flurandrenolide] | −0.0402 | 
77 | COc1ccc2c(c1)C(=O)N(CCc1ccc(S(=O)(=O)NC(=O)NC3CCCCC3)cc1)C(=O)C2(C)C [Gliquidone] | −0.9495 | 
78 | CC(C)COCC(CN(Cc1ccccc1)c1ccccc1)N1CCCC1 (stereo not drawn) [Bepridil hydrochloride] | −1.7961 | 

— patent US9393221B2, “Methods and compounds for reducing intracellular lipid storage” (THE GENERAL HOSPITAL CORPORATION, priority 2011, dated 2016)
